Data reported in patent US10724000B2, “Small molecule based conversion of somatic cells into neural crest cells” (Hoffmann-La Roche Inc., priority 2013, dated 2020).

Key:
[1] = test system: AMPK; assay: Kinase selectivity profiling (ProfilerPro Kinase Kits); assay type: biochemical; conditions: FIG. 1C
Method: (§1) Kinase Selectivity Profiling Kinase selectivity profiling was performed using ProfilerPro Kinase Kits from Caliper (PerkinElmer) according to the manufacturer's instructions.

[2] = target: T1, MSK1 (Homo sapiens, UniProt O75582); assay: as above; assay type: biochemical; conditions: FIG. 1C
T1 construct: purchased Caliper (PerkinElmer) ProfilerPro Kinase Kits
T1 sequence (O75582 whole entry, species assumed): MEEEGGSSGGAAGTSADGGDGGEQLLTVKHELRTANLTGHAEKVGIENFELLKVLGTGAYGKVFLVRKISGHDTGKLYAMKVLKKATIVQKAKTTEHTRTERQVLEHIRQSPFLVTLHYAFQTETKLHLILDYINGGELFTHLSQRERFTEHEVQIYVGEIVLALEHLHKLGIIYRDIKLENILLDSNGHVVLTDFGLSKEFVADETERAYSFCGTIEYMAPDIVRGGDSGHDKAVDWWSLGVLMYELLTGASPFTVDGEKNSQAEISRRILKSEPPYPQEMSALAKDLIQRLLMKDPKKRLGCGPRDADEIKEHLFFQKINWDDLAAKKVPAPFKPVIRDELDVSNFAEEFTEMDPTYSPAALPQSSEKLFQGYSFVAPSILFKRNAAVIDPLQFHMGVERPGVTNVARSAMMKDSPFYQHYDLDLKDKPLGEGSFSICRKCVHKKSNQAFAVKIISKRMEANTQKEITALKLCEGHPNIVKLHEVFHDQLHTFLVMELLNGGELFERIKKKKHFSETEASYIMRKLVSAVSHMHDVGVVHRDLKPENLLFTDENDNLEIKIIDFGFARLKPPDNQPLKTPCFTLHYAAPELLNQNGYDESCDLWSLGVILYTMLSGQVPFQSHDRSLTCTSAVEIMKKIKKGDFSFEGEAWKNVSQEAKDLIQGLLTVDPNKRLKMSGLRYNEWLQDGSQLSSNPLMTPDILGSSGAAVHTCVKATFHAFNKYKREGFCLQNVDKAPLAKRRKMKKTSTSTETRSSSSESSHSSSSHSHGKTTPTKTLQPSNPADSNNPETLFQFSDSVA
Method: as §1

[3] = target: T2, PKA (Homo sapiens, UniProt P17612); assay: as above; assay type: biochemical; conditions: FIG. 1C
T2 construct: purchased Caliper (PerkinElmer) ProfilerPro Kinase Kits
Method: as §1

[4] = target: T3, PKGa (Homo sapiens, UniProt Q13976); assay: as above; assay type: biochemical; conditions: FIG. 1C
T3 construct: purchased Caliper (PerkinElmer) ProfilerPro Kinase Kits
T3 sequence (Q13976 1-671): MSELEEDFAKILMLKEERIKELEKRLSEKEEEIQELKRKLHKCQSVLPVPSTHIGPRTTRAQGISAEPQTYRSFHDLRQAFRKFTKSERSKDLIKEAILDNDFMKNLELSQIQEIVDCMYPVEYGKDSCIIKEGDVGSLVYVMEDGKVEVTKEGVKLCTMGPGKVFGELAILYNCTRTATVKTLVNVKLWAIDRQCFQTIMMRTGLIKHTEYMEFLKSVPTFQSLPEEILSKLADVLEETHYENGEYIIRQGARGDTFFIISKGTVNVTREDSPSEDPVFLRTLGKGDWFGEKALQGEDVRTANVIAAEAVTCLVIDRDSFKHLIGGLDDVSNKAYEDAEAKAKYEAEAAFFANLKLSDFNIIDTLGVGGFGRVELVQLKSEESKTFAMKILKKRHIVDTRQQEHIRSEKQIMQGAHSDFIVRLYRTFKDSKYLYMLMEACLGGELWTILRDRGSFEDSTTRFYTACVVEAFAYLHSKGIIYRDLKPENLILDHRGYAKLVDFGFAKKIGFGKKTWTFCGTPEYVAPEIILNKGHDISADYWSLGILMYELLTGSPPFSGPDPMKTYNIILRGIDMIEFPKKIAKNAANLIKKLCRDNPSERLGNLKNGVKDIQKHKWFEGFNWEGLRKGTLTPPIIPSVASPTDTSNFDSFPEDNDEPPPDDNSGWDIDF
Method: as §1

[5] = target: T4, ROCK2 (Homo sapiens, UniProt O75116); assay: as above; assay type: biochemical; conditions: FIG. 1C
T4 construct: purchased Caliper (PerkinElmer) ProfilerPro Kinase Kits
T4 sequence (O75116 whole entry, species assumed): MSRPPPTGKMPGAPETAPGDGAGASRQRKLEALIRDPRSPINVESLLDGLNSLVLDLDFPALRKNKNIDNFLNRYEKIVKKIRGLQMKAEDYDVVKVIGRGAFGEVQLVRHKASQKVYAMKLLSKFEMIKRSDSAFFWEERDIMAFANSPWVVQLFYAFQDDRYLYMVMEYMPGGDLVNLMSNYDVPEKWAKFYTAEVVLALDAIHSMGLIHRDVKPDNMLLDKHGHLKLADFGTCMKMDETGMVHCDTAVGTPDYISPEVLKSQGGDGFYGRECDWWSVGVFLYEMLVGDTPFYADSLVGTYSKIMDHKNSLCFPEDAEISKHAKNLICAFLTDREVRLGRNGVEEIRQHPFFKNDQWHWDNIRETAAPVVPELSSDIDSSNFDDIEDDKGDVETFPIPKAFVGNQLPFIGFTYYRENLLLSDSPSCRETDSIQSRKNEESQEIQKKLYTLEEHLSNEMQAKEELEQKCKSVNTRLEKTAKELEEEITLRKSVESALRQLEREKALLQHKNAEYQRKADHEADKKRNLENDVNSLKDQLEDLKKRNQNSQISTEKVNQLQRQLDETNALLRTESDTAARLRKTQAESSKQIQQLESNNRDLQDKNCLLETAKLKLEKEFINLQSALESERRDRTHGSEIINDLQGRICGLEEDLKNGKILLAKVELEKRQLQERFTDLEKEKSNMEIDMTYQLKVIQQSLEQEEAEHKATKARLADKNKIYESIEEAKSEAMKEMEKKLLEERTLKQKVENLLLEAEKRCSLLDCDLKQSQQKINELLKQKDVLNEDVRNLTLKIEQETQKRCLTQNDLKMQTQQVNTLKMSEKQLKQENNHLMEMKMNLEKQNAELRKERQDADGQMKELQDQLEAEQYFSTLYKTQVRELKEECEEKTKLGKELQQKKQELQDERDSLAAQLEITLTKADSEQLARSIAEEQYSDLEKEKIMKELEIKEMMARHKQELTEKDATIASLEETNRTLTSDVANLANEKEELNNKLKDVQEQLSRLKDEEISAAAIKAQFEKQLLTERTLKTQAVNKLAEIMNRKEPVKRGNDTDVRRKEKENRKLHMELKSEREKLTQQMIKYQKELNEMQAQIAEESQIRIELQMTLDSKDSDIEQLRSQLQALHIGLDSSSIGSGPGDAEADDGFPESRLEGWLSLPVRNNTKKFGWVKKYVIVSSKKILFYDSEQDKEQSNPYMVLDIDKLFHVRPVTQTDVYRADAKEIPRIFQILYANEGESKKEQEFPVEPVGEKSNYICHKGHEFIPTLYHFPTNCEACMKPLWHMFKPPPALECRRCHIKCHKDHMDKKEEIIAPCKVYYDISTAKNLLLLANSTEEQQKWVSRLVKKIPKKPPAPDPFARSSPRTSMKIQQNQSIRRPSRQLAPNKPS
Method: as §1

[6] = target: T5, SGK1 (Homo sapiens, UniProt O00141); assay: as above; assay type: biochemical; conditions: FIG. 1C
T5 construct: purchased Caliper (PerkinElmer) ProfilerPro Kinase Kits
T5 sequence (O00141 1-431): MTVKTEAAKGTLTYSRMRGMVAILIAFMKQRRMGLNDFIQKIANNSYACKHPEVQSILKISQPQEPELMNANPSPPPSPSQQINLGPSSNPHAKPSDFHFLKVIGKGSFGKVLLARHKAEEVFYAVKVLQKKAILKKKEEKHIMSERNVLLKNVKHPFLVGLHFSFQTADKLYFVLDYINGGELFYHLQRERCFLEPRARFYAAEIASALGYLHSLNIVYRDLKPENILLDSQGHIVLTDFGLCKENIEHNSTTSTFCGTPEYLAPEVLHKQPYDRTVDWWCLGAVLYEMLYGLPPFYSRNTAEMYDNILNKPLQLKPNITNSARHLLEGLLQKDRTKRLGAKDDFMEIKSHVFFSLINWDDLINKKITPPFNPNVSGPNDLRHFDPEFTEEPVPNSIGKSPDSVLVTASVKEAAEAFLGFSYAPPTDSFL
Method: as §1

[7] = test system: ESC-NSCs; assay: Neural stem cell proliferation, ATP assay (CellTiterGlo); assay type: cell-based, human; conditions: ATP assay after four days, FIG. 1A
Method: Embryonic stem cell-derived neural stem cells (ESC-NSCs) were generated as previously described using dual SMAD inhibition protocol (Chambers et al., 2009). NSCs were cultured on POL coated plates at 37° C., 5% CO2 in N2B27 supplemented with bFGF (10 ng/ml), EGF (10 ng/ml), BDNF (20 ng/ml). For Compound B identification, NSCs were seeded on POL coated plates at 21000 cells/cm^2 in N2B27. After cell attachment (4 h), compounds were added at indicated concentrations. Negative control cells were treated with DMSO. Cells were incubated for four days and subsequently the amount of ATP was determined using the CellTiterGlo® kit (Promega) according to the manufacturer's instructions.

[8] = test system: mesenchymal stem cells; assay: Mesenchymal stem cell proliferation; assay type: cell-based; conditions: FIG. 1A
[9] = test system: SCC058 foreskin fibroblasts; assay: Sphere formation assay of fibroblasts in suspension culture; assay type: cell-based, human; conditions: day 3, FIG. 1B, 1D
Method: SCC058 foreskin fibroblasts (Millipore) were cultured at 37° C. and 5% CO2 in low serum FibroGro (Millipore). For conversion, 7300 cells/cm^2 were seeded in fibroblast medium containing 1 mM Valproic acid (VPA, Sigma). Then, cells were treated for two days with 1 mM VPA, and 6 μg/ml polybrene (Millipore) and subsequently transferred to low attachment plates in NSC medium for sphere formation. NSC medium consisted of NeuroCult NS-A proliferation medium (StemCell Technologies) supplemented with Penicillin/streptomycin, bFGF (20 ng/ml), EGF (20 ng/ml), BDNF (20 ng/ml), Heparin (2 μg/ml), D114 (500 ng/ml), Jagged1 (500 ng/ml), SHH (500 ng/ml, peprotech), Ascorbic Acid (0.2 mM, Sigma), FGF8a (100 ng/ml), 10% NSC-CM (medium conditioned by ESC-NSCs), and Compound B (2 μM, Roche).
• [3R,4R]-N-{4-[4-(2-Fluoro-6-hydroxy-3-methoxy-benzoyl)-benzoyl amino]-azep+an-3-yl}-4-hydroxy-3,5-dimethyl-benzamide hydrochlorid All growth factors were from R&D systems if not indicated otherwise. To compare effects of other inhibitors, Compound B was replaced by 2 μM Dorsomorphin, 10 uM H89 (Tocris), 10 μM Y27632, or 10 μM GSK650394 (Tocris), respectively. After four days, spheres were dissociated with Accutase and single cells were seeded in low attachment plates in NSC medium supplemented with inhibitor mix comprising 500 ng/ml Noggin (peprotech), 10 μM SB431452 (Tocris), and 1 μM CP21 (Roche).

[10] = test system: fibroblast-derived secondary spheres; assay: Attachment of secondary spheres to laminin substrate (POL); assay type: cell-based, human; conditions: two hours after plating on POL; FIG. 6
Method: • [3R,4R]-N-{4-[4-(2-Fluoro-6-hydroxy-3-methoxy-benzoyl)-benzoyl amino]-azep+an-3-yl}-4-hydroxy-3,5-dimethyl-benzamide hydrochlorid All growth factors were from R&D systems if not indicated otherwise. To compare effects of other inhibitors, Compound B was replaced by 2 μM Dorsomorphin, 10 uM H89 (Tocris), 10 μM Y27632, or 10 μM GSK650394 (Tocris), respectively. After four days, spheres were dissociated with Accutase and single cells were seeded in low attachment plates in NSC medium supplemented with inhibitor mix comprising 500 ng/ml Noggin (peprotech), 10 μM SB431452 (Tocris), and 1 μM CP21 (Roche). After 3 days, secondary spheres were seeded on polyornithine-laminin (POL) coated dishes. After attachment (24 hours), medium was replaced with differentiation medium comprising N2B27 (1:1 DMEM/F12 and Neurobasal with beta-mercaptoethanol (50 μM), B27 supplement without vitamin A (1:50, Invitrogen), and N2 supplement (1:100, Invitrogen)) supplemented with antibiotics, BDNF (20 ng/ml), GDNF (20 ng/ml), Laminin ([…]), Ascorbic Acid (0.2 mM) and dibutyryl-cAMP (0.5 mM, Sigma). Every other day, 50% of medium was exchanged. For the first seven days of differentiation, medium was supplemented with the inhibitor mix.

inhibition of AMPK [1]	inhibition of MSK1 [2]	inhibition of PKA [3]	inhibition of PKGa [4]	inhibition of ROCK2 [5]	inhibition of SGK1 [6]	Compound	proliferation of neural stem cells [7]	effect on mesenchymal stem cells (proliferation) [8]	sphere size [9]	total cell number in suspension culture [9]	attachment and migration of spheres on laminin substrate [10]
over 80%	over 80%	over 80%	over 80%	over 80%	over 80%	COc1ccc(O)c(C(=O)c2ccc(C(=O)N[C@@H]3CCCNC[C@H]3NC(=O)c3cc(C)c(O)c(C)c3)cc2)c1F.Cl [Compound B, N-{(3R,4R)-4-[4-(2-Fluoro-6-hydroxy-3-methoxy-benzoyl)-benzoylamino]-azepan-3-yl}-4-hydroxy-3,5-dimethyl-benzamide]	promoted proliferation of ESC-NSCs in a dose-dependent manner	no effect	significant increase	significant increase	have attached and started to migrate
						O=S(=O)(NCCNC/C=C/c1ccc(Br)cc1)c1cccc2cnccc12 [Compound H89, reference compound]			increase in sphere size, albeit not at the same extent as Compound B		
						C[C@@H](N)[C@H]1CC[C@H](C(=O)Nc2ccncc2)CC1 [Compound Y27142, reference compound]			increase in sphere size, albeit not at the same extent as Compound B		
